target: Sodium- and chloride-dependent GABA transporter 1 (Homo sapiens, UniProt P30531); test: Inhibition of GAT1 transport activity
Sequence (P30531 whole entry): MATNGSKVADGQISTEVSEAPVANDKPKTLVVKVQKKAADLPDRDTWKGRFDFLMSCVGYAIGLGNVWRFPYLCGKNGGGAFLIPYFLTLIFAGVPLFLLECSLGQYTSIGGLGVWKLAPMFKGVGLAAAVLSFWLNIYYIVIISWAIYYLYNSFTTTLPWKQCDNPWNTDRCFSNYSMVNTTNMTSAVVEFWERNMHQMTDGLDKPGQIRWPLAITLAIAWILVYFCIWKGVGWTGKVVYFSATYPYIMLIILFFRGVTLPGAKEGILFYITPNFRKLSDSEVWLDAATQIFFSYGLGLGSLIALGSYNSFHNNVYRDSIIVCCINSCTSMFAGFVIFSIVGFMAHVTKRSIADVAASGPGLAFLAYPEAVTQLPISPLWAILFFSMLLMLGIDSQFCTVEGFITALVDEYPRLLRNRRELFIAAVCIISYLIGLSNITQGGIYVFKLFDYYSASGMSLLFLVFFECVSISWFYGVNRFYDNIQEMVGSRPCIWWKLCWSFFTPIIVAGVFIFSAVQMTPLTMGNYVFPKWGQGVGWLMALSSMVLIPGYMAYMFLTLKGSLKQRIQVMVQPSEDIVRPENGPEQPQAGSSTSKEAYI

| IC50 | Compound |
| --- | --- |
| 840 nM | O=C(O)[C@@H]1CCCN(CCC=C(c2sccc2COCc2ccccc2)c2sccc2COCc2ccccc2)C1 |
| > 100000 nM | CC(C)OCc1ccsc1C(=CCCN1CCCCC1C(=O)O)c1sccc1COC(C)C (stereo not given) |
| 2800 nM | COCc1ccsc1C(=CCCN1CCC[C@@H](C(=O)O)C1)c1sccc1COC |
| 680 nM | O=C(O)[C@@H]1CCCN(CCC=C(c2sccc2COC2CCCCC2)c2sccc2COC2CCCCC2)C1 |
| > 100000 nM | Cc1ccsc1C(=CCCN1CCC(C(=O)O)CC1)c1sccc1C |
| 1240 nM | O=C(O)C1CCN(CCC=C(c2sccc2COC2CCCCC2)c2sccc2COC2CCCCC2)CC1 |
| > 100000 nM | COCc1ccsc1C(=CCCN1CCC(C(=O)O)CC1)c1sccc1COC |
| > 100000 nM | O=C(O)C1CCN(CCC=C(c2sccc2COc2cccc3ccccc23)c2sccc2COc2cccc3ccccc23)CC1 |
| 66300 nM | O=C(O)[C@@H]1CCCN(CCC=C(c2sccc2COc2cccc3ccccc23)c2sccc2COc2cccc3ccccc23)C1 |
| 7100 nM | CC(C)OCc1ccsc1C(=CCCN1CCC[C@@H](C(=O)O)C1)c1sccc1COC(C)C |
| > 100000 nM | CC(C)OCc1ccsc1C(=CCCN1CCC(C(=O)O)CC1)c1sccc1COC(C)C |
| 1360 nM | Cc1ccsc1C(=CCCN1CCCCC1C(=O)O)c1sccc1C (stereo not given) |
| 27600 nM | O=C(O)C1CCCCN1CCC=C(c1sccc1COCc1ccccc1)c1sccc1COCc1ccccc1 (stereo not given) |
| 4340 nM | O=C(O)C1CCN(CCC=C(c2sccc2COCc2ccccc2)c2sccc2COCc2ccccc2)CC1 |
| 340 nM | O=C(O)[C@@H]1CCCN(CCC=C(c2sccc2COc2ccccc2)c2sccc2COc2ccccc2)C1 |
| 12300 nM | COCc1ccsc1C(=CCCN1CCCCC1C(=O)O)c1sccc1COC (stereo not given) |
| 940 nM | O=C(O)C1CCCCN1CCC=C(c1sccc1COC1CCCCC1)c1sccc1COC1CCCCC1 (stereo not given) |
| > 100000 nM | O=C(O)C1CCCCN1CCC=C(c1sccc1COc1cccc2ccccc12)c1sccc1COc1cccc2ccccc12 (stereo not given) |
| 1500 nM | O=C(O)C1CCN(CCC=C(c2sccc2COc2ccccc2)c2sccc2COc2ccccc2)CC1 |
| 650 nM | O=C(O)C1CCCCN1CCC=C(c1sccc1COc1ccccc1)c1sccc1COc1ccccc1 (stereo not given) |

— ChEMBL document CHEMBL1148561, “Design, synthesis, and biological evaluation of the N-diarylalkenyl-piperidinecarboxylic acid derivatives as GABA uptake inhibitors (I)” (Bioorg Med Chem Lett, 2006)
